Laboratory results: patent publication EP1009397B1, “USE OF N,N-BIS (PHENYLCARBAMOYLMETHYL) DIMETHYLAMMONIUM CHLORIDE AND DERIVATIVES IN THE TREATMENT OF CHRONIC PAIN” (UCB Farchim S.A., priority 1997, dated 1999)

Assays:
[1] = test system: human forearm; test: Intradermal injections into the human forearm; format: in vivo; conditions: intradermal injections of small volumes of solutions
[2] = test system: rabbit; conditions: intravenous administration; cited from earlier work
[3] = test system: mouse tail; test: Regional analgesic effects in mice (tourniquet at tail base, tail vein injection, tail-flick); format: in vivo; conditions: injection into the tail vein, tourniquet around the base of the tail
From the text: In these experiments a tourniquet is placed around the base of a mouse tail so as to occlude blood flow to and from the tail.

[4] = Acute toxicity in rats; conditions: rat, in vivo, ip; intraperitoneal administration to rats; read-out: survival dose values (LD50)
[5] = Acute toxicity in rabbits; conditions: rabbit, in vivo; intravenous administration to rabbits; read-out: survival dose values (LD50)
Protocol: The experiments were carried out on animals that were administered intravenously or orally escalating doses of the test compounds.

[6] = test system: CD-I mouse; test: Formalin Paw Test; format: in vivo, mice; conditions: for ED50: subcutaneous
Protocol: In this test a hind paw (footpad) of conscious mice was injected with a formalin solution, which produced a painful stimulus, to which the mice reacted by licking the foot. Pretreatment of the animal with an effective analgesia reduced the pain and consequently the licking behavior. […] At t=0 minutes, either saline, […], 20, 40, 80 or 160 mg/kg was injected subcutaneously under the dorsal skin of the neck of a CD-I mouse (n=8 for each dose of Compound I) that weighed in the range of 20-45 grams. At t=60 minutes, formalin (2 different amounts were used in separate studies) was injected into the right hind paw (footpad) of each mouse, and the animal was released into the observation chamber (24-26°C). The mice were videotaped in groups of four for 60 minutes. The observations were made from viewing the videotapes activity, and the investigators looked for the following pain behavioral traits: licking of the right hind paw; lifting and licking of the right hind paw; resting/sleeping/being still; exploring or grooming (F.V. Abbott, K.B.J. Franklin and R.F. Wesbrook, Pain, 1995, 60 191-202). The corresponding behavioral traits were checked and recorded for each animal every two minutes for sixty minutes after the formalin injection.

[7] = Acute toxicity in mice; conditions: mouse, in vivo, read-out: survival dose values (LD50)
[8] = test system: CD-1 mice; test: Formalin Tail Test; format: in vivo
Protocol: The protocol of this test is similar to that for the Paw Test described above, except that the injection of formalin was in the dorsal mid-tail region of the mouse instead of the hind paw. Behaviors such as licking of the tail (with and without lifting the tail), grooming, exploring and resting were recorded every two minutes for sixty minutes after injection of formalin (30 µl of 2.5% formalin)
Two modes of administration (subcutaneous and oral) of Compound I were studied. […] The ED50 was determined to be 40 mg/kg.
In the oral administration study, CD-1 mice weighing 15-30 grams each (n=8 or 4 for each dose of Compound I) were orally administered with either gum arabic (vehicle), 300 mg/kg or 700 mg/kg Compound I, 60 minutes prior to formalin (2.5%, 30 µ1)_injection. Behaviors such as licking of the tail (with and without lifting the tail), grooming, exploring and resting were recorded every two minutes for sixty minutes after injection of formalin (30 µl of 2.5% formalin). At an oral dose of 700mg/kg, Compound I reduced licking by 62%, while at 300 mg/kg, a reduction of 50% was determined

[9] = test system: guinea pig; conditions: intravenous administration; cited from earlier work

Row | SMILES | effect on sensation of heat or touch [1] | inhibition of pain induced by pin-prick [1] | Toxicity (LD100) [2] | block of tail-flick in response to heat [3] | block of tail-flick in response to pin-prick [3] | LD50 [4] | LD50 [5] | ED50 ([6]; Mus musculus, sc, 20 µl of 2.0% formalin injected) | ED50 ([6]; Mus musculus, sc, 30 µl of 2.5% formalin injected) | inhibition at 160 mg/kg ([6]; Mus musculus, sc, 20 µl of 2.0% formalin injected, at 160 mg/kg subcutaneous) | alteration of animal behavior ([6]; at the doses of the formalin paw test (up to 160 mg/kg subcutaneous)) | inhibition of the delayed phase of licking ([6]; subcutaneous under the dorsal skin of the neck, 60 minutes before formalin into right hind paw) | LD50 ([7]; ip, intraperitoneal administration to mice) | LD50 ([7]; sc, subcutaneous injection to mice) | LD50 ([7]; oral administration to mice) | ED50 ([8]; Mus musculus, sc, subcutaneous administration, 30 µl of 2.5% formalin) | reduction of licking ([8]; oral 300 mg/kg, 60 minutes prior to formalin (2.5%, 30 µ1)) | reduced licking ([8]; oral dose of 700mg/kg, 60 minutes prior to formalin (2.5%, 30 µ1)) | inhibition of the delayed phase of licking ([8]; subcutaneous administration under the dorsal skin of the neck, 30 µl of 2.5% formalin in dorsal mid-tail region) | Toxicity (LD100) [9]
1 | CCCCN1CCCCC1C(=O)Nc1c(C)cccc1C (centres unmarked) [bupivacaine] | inhibited equally sensation of pain, heat and touch | inhibited equally sensation of pain, heat and touch | – | – | – | – | – | – | – | – | – | – | – | – | – | – | – | – | – | –
2 | C[N+](C)(CC(=O)Nc1ccccc1)CC(=O)Nc1ccccc1.[Cl-] [Compound I, N, N-Bis (phenylcarbamoylmethyl) dimethylammonium chloride] | little or no effect on sensation of heat or touch | long-lasting inhibition of pain induced by pin-prick | 50 mg/kg | not to heat | rapidly produced block of tail-flick in response to pin-prick | 150 mg/kg | 17 mg/kg | 50 mg/kg | 145 mg/kg | > 80% | no evident alteration of animal behavior other than the reduced reaction to the noxious stimulus | dose related inhibition of the delayed phase of licking | 125 mg/kg | 264 mg/kg | 117 mg/kg | 40 mg/kg | 50% | 62% | dose related inhibition of the delayed phase of licking | 36 mg/kg
3 | CCN(CC)CC(=O)Nc1c(C)cccc1C [lidocaine, reference compound] | inhibited equally sensation of pain, heat and touch | inhibited equally sensation of pain, heat and touch | – | inhibits responses both to pin-prick and to heat | inhibits responses both to pin-prick and to heat | – | – | – | – | – | – | – | – | – | – | – | – | – | – | –
